Results on two compounds are retold here after patent US11919860B1 (priority 2023, dated 2024).

In general, MIC refers to the lowest concentration that inhibits growth of the organism.

The structures appear in SMILES notation.

Assay [1] concerns XDR strain of Mycobacterium tuberculosis. In words: Anti-tubercular activity, colorimetric Resazurin Microplate Assay (REMA). The settings on record: 192 h, read-out: Anti-tubercular activity against Mycobacterium tuberculosis XDR (MIC). It counts as cell-based. Background: Resazurin is reduced to fluorescent resorufin, in cell work by metabolically active cells.
Assay [2] has as its system MDR strain of Mycobacterium tuberculosis. The description is as above. The format is cell-based. Particulars: 192 h, read-out: Anti-tubercular activity against Mycobacterium tuberculosis MDR (MIC).

Consider `CC(C)OC(=O)c1cc[n+](CC(=O)c2ccc(F)cc2)cc1.[Br-]` [Compound 4b, 1-(2-(4-Fluorophenyl)-2-oxoethyl)-4-(isopropoxycarbonyl)pyridin-1-ium bromide], for which the MIC turned out to be 16 µg/mL in assay [1] and 1 µg/mL in assay [2].

As to `CC(C)OC(=O)c1cc[n+](CC(=O)c2ccccc2)cc1.[Br-]` [Compound 4a, 4-(Isopropoxycarbonyl)-1-(2-oxo-2-phenylethyl)pyridin-1-ium Bromide], the MIC in assay [1] and in assay [2] was 2 µg/mL each time.
